Data reported in the RepoRT retention time repository (doi:10.1016/j.jchromb.2020.122105).

What was measured:
Conditions in all cases: stereoisomer not certain
[1] = RP, Waters CORTECS T3, 100 × 2.1 mm, 2.7 µm, 0.3 mL/min, estimated dead time 0.73 min; A: water + 0.1% formic acid, pH 3; B: methanol + 0.1% formic acid, pH 3; gradient (min/%B) 0/5 5/5 25/100 30/100 30.1/5 35/5
[2] = RP, Waters CORTECS T3, 100 × 2.1 mm, 2.7 µm, 0.2 mL/min, estimated dead time 1.1 min; A: water + 0.1% formic acid, pH 3; B: methanol + 0.1% formic acid, pH 3; gradient (min/%B) 0/0 1/0 6/5 30/100 35/100 35.1/0 40/0
[3] = RP, Waters CORTECS T3, 100 × 2.1 mm, 2.7 µm, 0.15 mL/min, estimated dead time 1.5 min; A: water + 0.1% formic acid, pH 3; B: methanol + 0.1% formic acid, pH 3; gradient (min/%B) 0/0 1/0 6/5 30/100 35/100 35.1/0 40/0
[4] = RP, Waters CORTECS T3, 100 × 2.1 mm, 2.7 µm, 0.3 mL/min, estimated dead time 0.73 min; A: water + 0.1% formic acid, pH 3; B: methanol + 0.1% formic acid, pH 3; gradient (min/%B) 0/0 1/0 6/5 30/100 35/100 35.1/0 40/0
[5] = RP, Waters CORTECS T3, 100 × 2.1 mm, 2.7 µm, 0.25 mL/min, estimated dead time 0.88 min; A: water + 0.1% formic acid, pH 3; B: methanol + 0.1% formic acid, pH 3; gradient (min/%B) 0/0 1/0 6/5 30/100 35/100 35.1/0 40/0
[6] = RP, Waters CORTECS T3, 100 × 2.1 mm, 2.7 µm, 0.3 mL/min, estimated dead time 0.73 min; A: water + 0.1% formic acid, pH 3; B: methanol + 0.1% formic acid, pH 3; gradient (min/%B) 0/5 5/5 25/95 25.1/100 35/100 35.1/5 45/5
[7] = RP, Waters CORTECS T3, 100 × 2.1 mm, 2.7 µm, 0.2 mL/min, estimated dead time 1.1 min; A: water + 0.045% formic acid + 0.11% ammonium hydroxide, pH 7; B: methanol; gradient (min/%B) 0/5 5/5 25/95 25.1/100 35/100 35.1/5 45/5
[8] = RP, Waters ACQUITY UPLC BEH C18, 100 × 2.1 mm, 1.7 µm, 0.1 mL/min, estimated dead time 2.2 min; A: water + 0.1% formic acid, pH 3; B: methanol + 0.1% formic acid, pH 3; gradient (min/%B) 0/5 5/5 25/95 25.1/100 35/100 35.1/5 45/5
[9] = RP, Waters ACQUITY UPLC BEH C18, 100 × 2.1 mm, 1.7 µm, 0.1 mL/min, estimated dead time 2.2 min; A: water + 0.045% formic acid + 0.11% ammonium hydroxide, pH 7; B: methanol; gradient (min/%B) 0/5 5/5 25/95 25.1/100 35/100 35.1/5 45/5
[10] = RP, Waters ACQUITY UPLC BEH C18, 100 × 2.1 mm, 1.7 µm, 0.2 mL/min, estimated dead time 1.1 min; A: water + 0.025% formic acid + 20 mM ammonium acetate + 0.055% ammonium hydroxide, pH 7; B: methanol; gradient (min/%B) 0/5 5/5 25/100 30/100 30.1/5 35/5
[11] = RP, Waters CORTECS T3, 100 × 2.1 mm, 2.7 µm, 0.3 mL/min, estimated dead time 0.73 min; A: water + 0.1% formic acid, pH 3; B: methanol + 0.1% formic acid, pH 3; gradient (min/%B) 0/0 5/0 25/100 30/100 30.1/0 35/0
[12] = RP, Waters CORTECS T3, 100 × 2.1 mm, 2.7 µm, 0.1 mL/min, estimated dead time 2.2 min; A: water + 0.1% formic acid, pH 3; B: methanol + 0.1% formic acid, pH 3; gradient (min/%B) 0/0 1/0 6/5 30/100 35/100 35.1/0 40/0
[13] = RP, Waters CORTECS T3, 100 × 2.1 mm, 2.7 µm, 0.1 mL/min, estimated dead time 2.2 min; A: water + 0.1% formic acid, pH 3; B: methanol + 0.1% formic acid, pH 3; gradient (min/%B) 0/5 5/5 25/95 25.1/100 35/100 35.1/5 45/5
[14] = RP, Waters ACQUITY UPLC BEH C18, 100 × 2.1 mm, 1.7 µm, 0.1 mL/min, estimated dead time 2.2 min; A: water + 0.1% formic acid, pH 3; B: methanol + 0.1% formic acid, pH 3; gradient (min/%B) 0/5 5/5 25/100 30/100 30.1/5 35/5
[15] = RP, Thermo Scientific Hypercarb, 150 × 2.1 mm, 5 µm, 0.1 mL/min, estimated dead time 3.3 min; A: water + 0.1% formic acid, pH 3; B: methanol + 0.1% formic acid, pH 3; gradient (min/%B) 0/5 5/5 20/100 35/100 35.1/5 45/5
[16] = RP, Waters ACQUITY UPLC BEH C18, 100 × 2.1 mm, 1.7 µm, 0.1 mL/min, estimated dead time 2.2 min; A: water + 0.1% formic acid, pH 3; B: methanol + 0.1% formic acid, pH 3; gradient (min/%B) 0/5 5/5 25/95 25.1/100 35/100 35.1/5 45/5; remark: listed apart in the source
[17] = RP, Waters CORTECS T3, 100 × 2.1 mm, 2.7 µm, 0.3 mL/min, estimated dead time 0.73 min; A: water + 0.1% formic acid, pH 3; B: methanol + 0.1% formic acid, pH 3; gradient (min/%B) 0/0 5/0 25/100 30/100 30.1/0 35/0; remark: listed apart in the source
[18] = RP, Waters CORTECS T3, 100 × 2.1 mm, 2.7 µm, 0.2 mL/min, estimated dead time 1.1 min; A: water + 0.1% formic acid, pH 3; B: methanol + 0.1% formic acid, pH 3; gradient (min/%B) 0/0 1/0 6/5 30/100 35/100 35.1/0 40/0; remark: listed apart in the source
[19] = RP, Waters CORTECS T3, 100 × 2.1 mm, 2.7 µm, 0.3 mL/min, estimated dead time 0.73 min; A: water + 0.1% formic acid, pH 3; B: methanol + 0.1% formic acid, pH 3; gradient (min/%B) 0/0 1/0 6/5 30/100 35/100 35.1/0 40/0; remark: listed apart in the source
[20] = RP, Waters CORTECS T3, 100 × 2.1 mm, 2.7 µm, 0.2 mL/min, estimated dead time 1.1 min; A: water + 0.1% formic acid, pH 3; B: methanol + 0.1% formic acid, pH 3; gradient (min/%B) 0/5 5/5 25/95 25.1/100 35/100 35.1/5 45/5
[21] = RP, Waters ACQUITY UPLC BEH C18, 100 × 2.1 mm, 1.7 µm, 0.2 mL/min, estimated dead time 1.1 min; A: water + 0.1% formic acid, pH 3; B: methanol + 0.1% formic acid, pH 3; gradient (min/%B) 0/5 5/5 25/100 30/100 30.1/5 35/5
[22] = RP, Waters CORTECS T3, 100 × 2.1 mm, 2.7 µm, 0.25 mL/min, estimated dead time 0.88 min; A: water + 0.1% formic acid, pH 3; B: methanol + 0.1% formic acid, pH 3; gradient (min/%B) 0/5 5/5 25/95 25.1/100 35/100 35.1/5 45/5
[23] = RP, Waters ACQUITY UPLC BEH C18, 100 × 2.1 mm, 1.7 µm, 0.1 mL/min, estimated dead time 2.2 min; A: water + 0.1% formic acid, pH 3; B: methanol + 0.1% formic acid, pH 3; gradient (min/%B) 0/5 5/5 25/95 25.1/100 35/100 35.1/5 45/5; remark: listed apart in the source
[24] = RP, Waters ACQUITY UPLC BEH C18, 100 × 2.1 mm, 1.7 µm, 0.2 mL/min, estimated dead time 1.1 min; A: water + 0.025% formic acid + 20 mM ammonium acetate + 0.055% ammonium hydroxide, pH 7; B: methanol; gradient (min/%B) 0/5 5/5 25/100 30/100 30.1/5 35/5; remark: listed apart in the source
[25] = HILIC, Merck SeQuant ZIC-HILIC, 150 × 2.1 mm, 5 µm, 0.75 mL/min, estimated dead time 0.44 min; A: water + 0.1% acetic acid + 10 mM ammonium acetate, pH 4; B: 5% water + 95% acetonitrile + 0.1% acetic acid + 10 mM ammonium acetate, pH 4; gradient (min/%B) 0/95 5/95 20/57 25/57 30/95 40/95

Row | LC retention time [1] [min] | LC retention time [2] [min] | LC retention time [3] [min] | LC retention time [4] [min] | LC retention time [5] [min] | LC retention time [6] [min] | LC retention time [7] [min] | LC retention time [8] [min] | LC retention time [9] [min] | LC retention time [10] [min] | LC retention time [11] [min] | LC retention time [13] [min] | LC retention time [14] [min] | LC retention time [15] [min] | LC retention time [16] [min] | SMILES | also measured
1 | 1.91 | 4.15 | 5.81 | 2.69 | 3.26 | 1.89 | 2.92 | 2.75 | 5.83 | 3.24 | 2.85 | 5.41 | 5.99 | – | – | O=c1cccc[nH]1 [2-HYDROXYPYRIDINE] | LC retention time [12]: 2.74 min
2 | – | 1.34 | 1.78 | – | 1.09 | – | 11.7 | – | 16.1 | 11.2 | 0.89 | – | 2.74 | 4.86 | 2.66 | CN1CCC[C@H]1c1cccnc1 [(S)-NICOTINE] | –
3 | – | 1.34 | 1.78 | 0.92 | 1.09 | 0.9 | – | 2.72 | – | – | – | – | 2.74 | – | – | Nc1ncnc2c1ncn2C1CC(O)C(COP(=O)(O)O)O1 (centres undefined) [DAMP] | LC retention time [17]: 0.89 min; LC retention time [18]: 1.35 min; LC retention time [19]: 0.92 min; LC retention time [20]: 2.67 min; LC retention time [21]: 1.38 min; LC retention time [22]: 1.08 min; LC retention time [23]: 2.7 min; LC retention time [24]: 1.36 min; LC retention time [25]: 12.9 min
4 | – | – | – | – | 1.09 | 0.9 | – | 2.84 | – | – | – | – | – | – | – | Nc1nc2c(ncn2C2OC(COP(=O)(O)O)C(O)C2O)c(=O)[nH]1 (centres undefined) [GUANOSINE 5'-MONOPHOSPHATE] | LC retention time [17]: 0.89 min; LC retention time [18]: 1.35 min; LC retention time [19]: 0.92 min; LC retention time [20]: 2.67 min; LC retention time [21]: 1.79 min; LC retention time [22]: 1.08 min
5 | 1.2 | 2.36 | 3.31 | 1.57 | 1.9 | 1.17 | 3.68 | 2.69 | 6.91 | 3.89 | 1.63 | 3.38 | 3.66 | 24.4 | – | NC(=O)c1cccnc1 [NICOTINAMIDE] | –
6 | – | – | – | – | – | – | – | 2.66 | – | – | – | – | – | 5.02 | – | C[N+](C)(C)CCOP(=O)([O-])OCC(O)CO (centres undefined) [SN-GLYCERO-3-PHOSPHOCHOLINE] | –
7 | 18.5 | 22.8 | 23.9 | 21.6 | 22.1 | 19.1 | – | – | – | – | 18.9 | – | 22.7 | – | 23.5 | NC(Cc1cc(I)c(Oc2cc(I)c(O)c(I)c2)c(I)c1)C(=O)O (centres undefined) [THYROXINE] | LC retention time [12]: 20.3 min
8 | 0.95 | 1.36 | 1.85 | – | 1.11 | – | – | 2.69 | – | – | 0.91 | 2.68 | 2.76 | 21.2 | – | O=c1cc[nH]c(=O)[nH]1 [URACIL] | –

Row | SMILES | LC retention time [1] [min] | LC retention time [2] [min] | LC retention time [3] [min] | LC retention time [4] [min] | LC retention time [5] [min] | LC retention time [6] [min] | LC retention time [7] [min] | LC retention time [8] [min] | LC retention time [9] [min] | LC retention time [10] [min] | LC retention time [11] [min] | LC retention time [13] [min] | LC retention time [14] [min] | LC retention time [15] [min] | LC retention time [16] [min] | also measured
9 | CCCCCCCCCC(=O)OCC(COP(=O)([O-])OCC[N+](C)(C)C)OC(=O)CCCCCCCCC (centres undefined) [1,2-DIDECANOYL-SN-GLYCERO-3-PHOSPHOCHOLINE] | 24.3 | 29.8 | 30.9 | 28.7 | 29.2 | 25.3 | 26 | 29.7 | 29.7 | 26 | – | – | – | – | – | –
10 | NCCc1c[nH]c2ccc(O)cc12 [SEROTONIN] | – | – | – | – | – | – | 10.7 | – | 13.9 | – | – | – | 2.74 | 14.4 | 2.66 | –
